Eleven compounds from paper PMC4666783 (Organic & biomolecular chemistry, 2015) can be followed below.

The term IC50 denotes the concentration at which inhibition is half-maximal. As a reminder, the Ki is the dissociation constant of the complex between target and ligand, obtained from inhibition or displacement.

One test concerns HIV-1. Briefly: Antiviral activity, MTT assay. The test is classed as cell-based. The conditions noted are these: for IC50: Human immunodeficiency virus 1, read-out: IC50 (antiviral); for antiviral potency: result in words, comparator as stated. Background: Formazan colour is commonly taken as a measure of viable cells.
A further test concerns the target HIV-1 protease (Human immunodeficiency virus type 1 group M subtype B, UniProt P04585). As to the kind of experiment: HIV-1 protease enzyme inhibition, assay developed by Toth and Marshall. Format: biochemical. The following applies: for enzyme inhibitory activity: result in words, comparator as stated.
The test system of test [1] is HIVDRV^RP20 drug resistant strains of HIV. Briefly: microbe, parasite or virus in culture. The test is classed as cell-based, HIV-1.

Where two headings read alike, the source gives them in different places.

With `CC(C)CN(C[C@@H](O)[C@H](Cc1ccccc1)NC(=O)O[C@H]1CO[C@H]2OCC[C@H]21)S(=O)(=O)c1ccc(N)cc1` [Darunavir, darunavir, reference compound], in the test with HIV-1, the IC50 came out at 1.6 nM.

For the compound `COc1ccc(S(=O)(=O)N(CC(C)C)C[C@@H](O)[C@H](Cc2ccccc2)NC(=O)O[C@H]2CCO[C@H]3OC[C@@H](OC)[C@H]32)cc1` [Inhibitor 30a, (3S,3aR,4S,7aS)-3-Methoxyhexahydro-2H-furo[2,3-b]pyran-4-yl (2S,3R)-3-hydroxy-4-(N-isobutyl-4-methoxyphenylsulfonamido)-1-phenylbutan-2-yl carbamate], at HIV-1 protease (at least 5 data points, standard error less than 7%), the Ki was 1.38 nM.

Regarding `COc1ccc(S(=O)(=O)N(CC(C)C)C[C@@H](O)[C@H](Cc2ccccc2)NC(=O)O[C@H]2CCO[C@H]3OC[C@H](OC)[C@H]32)cc1` [Inhibitor 30b, (3R,3aR,4S,7aS)-3-Methoxyhexahydro-2H-furo[2,3-b]pyran-4-yl (2S,3R)-3-hydroxy-4-(N-isobutyl-4-methoxyphenylsulfonamido)-1-phenylbutan-2-ylcarbamate], the Ki on HIV-1 protease came out at 0.0045 nM. Also, on HIV-1 protease (30b vs 30a), the “fold better enzymatic Ki compared to compound 30a” value was “over 300 fold”. For the same compound, in the test on HIV-1, the IC50 stood at 0.2 nM and the “antiviral potency” value is reported as “subnanomolar antiviral activity”.

`CO[C@H]1CO[C@@H]2OCC[C@H](OC(=O)N[C@@H](Cc3ccccc3)[C@H](O)CN(CC(C)C)S(=O)(=O)c3ccc(N)cc3)[C@@H]21` [Inhibitor 30c, (3R,3aR,4S,7aS)-3-Methoxyhexahydro-2H-furo[2,3-b]pyran-4-yl (2S,3R)-4-(4-amino-N-isobutylphenylsulfonamido)-3-hydroxy-1-phenylbutan-2-ylcarbamate]: the Ki at HIV-1 protease turned out to be 0.037 nM. In the test on HIV-1, the IC50 turned out to be 15 nM.

Take `CCO[C@H]1CO[C@@H]2OCC[C@H](OC(=O)N[C@@H](Cc3ccccc3)[C@H](O)CN(CC(C)C)S(=O)(=O)c3ccc(OC)cc3)[C@@H]21` [Inhibitor 30d, (3R,3aR,4S,7aS)-3-Ethoxyhexahydro-2H-furo[2,3-b]pyran-4-yl (2S,3R)-3-hydroxy-4-(N-isobutyl-4-methoxyphenyl-sulfonamido)-1-phenylbutan-2-ylcarbamate]: at HIV-1 protease, the Ki was determined as 0.0033 nM and the “enzyme inhibitory activity” value was “comparable enzyme inhibitory activity”.

For the compound `COc1ccc(S(=O)(=O)N(CC(C)C)C[C@@H](O)[C@H](Cc2ccccc2)NC(=O)O[C@H]2CCO[C@H]3OC[C@H](OCc4ccccc4)[C@H]32)cc1` [Inhibitor 30e, (3R,3aR,4S,7aS)-3-(Benzyloxy)hexahydro-2H-furo[2,3-b]pyran-4-yl (2S,3R)-3-hydroxy-4-(N-isobutyl-4-methoxy-phenylsulfonamido)-1-phenylbutan-2-ylcarbamate], at HIV-1 protease, the affinity, expressed as Ki, was 0.012 nM. In addition, in the test with HIV-1, the IC50 turned out to be 0.45 nM.

With `COc1ccc(S(=O)(=O)N(CC(C)C)C[C@@H](O)[C@H](Cc2ccccc2)NC(=O)O[C@H]2CCO[C@H]3OC[C@H](O)[C@H]32)cc1` [Inhibitor 30f, (3R,3aS,4S,7aS)-3-Hydroxyhexahydro-2H-furo[2,3-b]pyran-4-yl (2S,3R)-3-hydroxy-4-(N-isobutyl-4-methoxyphenyl-sulfonamido)-1-phenylbutan-2-ylcarbamate], affinity on HIV-1 protease was put at a Ki of 0.06 nM. The “fold less potent than compound 30b” value at HIV-1 protease (enzyme inhibitory and antiviral activity, 30f vs 30b) is 10 fold. For the same compound, the “antiviral activity against resistant variant” value in test [1] (HIVDRV^RP20, preliminary assessment) is given as “maintained full antiviral activity”. The IC50 was determined as 3.3 nM in test [1] (Human immunodeficiency virus 1, read-out: IC50 against HIVDRV^RP20) and 3.15 nM in the test on HIV-1.

In the case of `CCN[C@H]1CO[C@@H]2OCC[C@H](OC(=O)N[C@@H](Cc3ccccc3)[C@H](O)CN(CC(C)C)S(=O)(=O)c3ccc(OC)cc3)[C@@H]21` [Inhibitor 30j, (3R,3aS,4S,7aS)-3-(Ethylamino)hexahydro-2H-furo[2,3-b]pyran-4-yl (2S,3R)-3-hydroxy-4-(N-isobutyl-4-methoxyphenylsulfonamido)-1-phenylbutan-2-ylcarbamate], the “antiviral potency” value with HIV-1 was “subnanomolar antiviral activity”.

Take `CCN[C@H]1CO[C@@H]2OCC[C@H](OC(=O)N[C@@H](Cc3ccccc3)[C@H](O)CN(CC(C)C)S(=O)(=O)c3ccc(N)cc3)[C@@H]21` [Inhibitor 30k, (3R,3aS,4S,7aS)-3-(Ethylamino)hexahydro-2H-furo[2,3-b]pyran-4-yl (2S,3R)-4-(4-amino-N-isobutylphenylsulfonamido)-3-hydroxy-1-phenylbutan-2-ylcarbamate]: the “antiviral potency” value in the test on HIV-1 is given as “significant reduction in antiviral potency”.

As to `CCCN[C@H]1CO[C@@H]2OCC[C@H](OC(=O)N[C@@H](Cc3ccccc3)[C@H](O)CN(CC(C)C)S(=O)(=O)c3ccc(OC)cc3)[C@@H]21` [Inhibitor 30l, (3R,3aS,4S,7aS)-3-(Propylamino)hexahydro-2H-furo[2,3-b]pyran-4-yl (2S,3R)-3-hydroxy-4-(N-isobutyl-4-methoxyphenylsulfonamido)-1-phenylbutan-2-ylcarbamate], the “fold reduction in antiviral potency compared to 30j” value in the test on HIV-1 (30l vs 30j) is listed as about 3 fold.

Consider `COc1ccc(S(=O)(=O)N(CC(C)C)C[C@@H](O)[C@H](Cc2ccccc2)NC(=O)O[C@H]2CCO[C@H]3OC[C@H](N(C)C)[C@H]32)cc1` [Inhibitor 30m, (3R,3aS,4S,7aS)-3-(Dimethylamino)hexahydro-2H-furo[2,3-b]pyran-4-yl (2S,3R)-3-hydroxy-4-(N-isobutyl-4-methoxyphenylsulfonamido)-1-phenylbutan-2-ylcarbamate], for which the “enzyme inhibitory activity” value at HIV-1 protease is on record as “reduction in enzyme Ki”. Further, in the test on HIV-1 (30m vs 30i), the “fold improved antiviral activity over 30i” value was determined as 3 fold.
